Consider three molecules from patent US20230226136A1, “A SYNERGISTIC FORMULATION FOR MANAGEMENT OF RESPIRATORY PATHOGENS INCLUDING CORONAVIRUSES” (priority 2020, published 2023).

Assay [1] can be described thus: Effective concentrations of components of the formulation (tested in 200 uL of the formulation). Particulars: for Actual concentrations that were effective in 200 uL, 1:20 dilution: concentration of the component within the formulation at 1:20 dilution. The method, then:
Table 1 depicts the concentration of the biological, non-toxic peptide molecules included in the formulation of the present invention. The synergistic formulation of the present invention is prepared in various combinations of the constituents including protease inhibitor, 9 Arg, ion chelator, FDHIVY, Poly-Lys (L8), Anti-HAT, and vitamin B12. Each combination may include some of the above mentioned constituents depending on the use of the formulation. These concentrations of the components of the synergistic formulations of the present invention have been tested to be effective in 200 μL of the formulation.

The subject of another assay is SARS-CoV-2. Nature of the assay: IC-50 plaque assay against SARS-CoV-2. In kind it is cell-based. The settings on record: highest concentration tested 25 μM, FIG. 3.

Experimental for SARS-CoV-2: The IC-50 value of Remdesivir was calculated by considering the top and baseline value 100 and 0 respectively.
The IC-50 of the test material was calculated by considering the top and baseline value 100 and 0 respectively.

In the case of 9-L-Arginine-peptide [9 Arg], the “Actual concentrations that were effective in 200 uL, 1:20 dilution” value in assay [1] is on record as 2 mM. Also, in assay [1] (concentration of the component within the formulation at 1:30 dilution), the “Actual concentrations that were effective in 200 uL, 1:30 dilution” value is 1.3 mM. Turning to `CCC(CC)COC(=O)[C@H](C)N[P@](=O)(OC[C@H]1O[C@@](C#N)(c2ccc3c(N)ncnn23)[C@H](O)[C@@H]1O)Oc1ccccc1` [Remdesivir], in the assay with SARS-CoV-2, the “reduction in viral load” value is on record as “up to 86.84%”. As to “Phenylalanine-Aspartic acid-Histidine-Isoleucine-Valine-Tyrosine [FDHIVY]”, the “Actual concentrations that were effective in 200 uL, 1:20 dilution” value in assay [1] is 0.25 µg/mL.
